System: angioedema in CSU patients
Experiment: Phase 2 CSU study: angioedema activity score over 7 days (AAS7)
Assay type: in vivo, human
Conditions: 400 mg TID; for AAS7 % Change difference for rilzabrutinib vs. placebo LS Mean (95% CI) / AAS7 % Change from baseline LS Mean (SE) / AAS7 = 0, Non-responder n (%) / AAS7 = 0, OR (95% CI) for rilzabrutinib vs. placebo / AAS7 = 0, RRD (%) for rilzabrutinib vs. placebo (95% CI) / AAS7 Post-baseline Mean (SD) / Participants with AAS7 = 0, Responder n (%) / AAS7 Change difference for rilzabrutinib vs. placebo LS Mean (95% CI) / AAS7 Change from baseline LS Mean (SE): angioedema at baseline; for Non-responder n (%), AAS7 = 0 / OR (95% CI) for rilzabrutinib vs. placebo, AAS7 = 0 / RRD (%) for rilzabrutinib vs. placebo (95% CI), AAS7 = 0 / Responder n (%), AAS7 = 0: outlier removed
Text: The study comprises a 12 week, randomized, double-blind, placebo-controlled, multi-center, dose-ranging efficacy and safety phase, followed by a 40 week open label extension (OLE) phase (see FIG. 1). The study consists of three phases and an optional OLE phase. […] The weekly angioedema activity score (AAS7) was proposed as a tertiary endpoint. […] Patients were to complete the AAS using the e-diary. The e-diary was to be used once daily on the same time of each day recording of participant's answers to the angioedema activity score over 7 days (AAS7) questionnaire.

## CC(C)(C=C(C#N)C(=O)N1CCC[C@@H](n2nc(-c3ccc(Oc4ccccc4)cc3F)c3c(N)ncnc32)C1)N1CCN(C2COC2)CC1 [rilzabrutinib, (R)-2-[3-[4-amino-3-(2-fluoro-4-phenoxy-phenyl)pyrazolo[3,4-d]pyrimidin-1-yl]piperidine-1-carbonyl]-4-methyl-4-[4-(oxetan-3-yl)piperazin-1-yl]pent-2-enenitrile]
Week 4, omalizumab-naïve
  AAS7 % Change difference for rilzabrutinib vs. placebo LS Mean (95% CI): −49.61 (−90.06, −9.16) %
  AAS7 % Change from baseline LS Mean (SE): −79.54 (14.89) %
  AAS7 = 0, Non-responder n (%): 14 (60.9) n (%)
  AAS7 = 0, OR (95% CI) for rilzabrutinib vs. placebo: 1.519
  AAS7 = 0, RRD (%) for rilzabrutinib vs. placebo (95% CI): 7.3 %
  AAS7 Post-baseline Mean (SD): 11.73 (16.82)
  Participants with AAS7 = 0, Responder n (%): 9 (39.1) n (%)
Week 5, ITT
  AAS7 % Change from baseline LS Mean (SE): −69.87 (9.90) %
  AAS7 Change difference for rilzabrutinib vs. placebo LS Mean (95% CI): −9.32 (−20.56, 1.93)
  AAS7 Change from baseline LS Mean (SE): −38.91 (4.22)
Week 5, omalizumab-naïve
  Non-responder n (%), AAS7 = 0: 14 (41.2) n (%)
  OR (95% CI) for rilzabrutinib vs. placebo, AAS7 = 0: 1.359
  RRD (%) for rilzabrutinib vs. placebo (95% CI), AAS7 = 0: 7.5 %
  Responder n (%), AAS7 = 0: 20 (58.8) n (%)
  AAS7 % Change difference for rilzabrutinib vs. placebo LS Mean (95% CI): −17.62 (−46.15, 10.90) %
  AAS7 = 0, Non-responder n (%): 13 (56.5) n (%)
  AAS7 = 0, OR (95% CI) for rilzabrutinib vs. placebo: 1.550
  AAS7 = 0, RRD (%) for rilzabrutinib vs. placebo (95% CI): 9.8 %
  AAS7 Post-baseline Mean (SD): 10.83 (15.39)
  Participants with AAS7 = 0, Responder n (%): 10 (43.5) n (%)
Week 6, ITT
  AAS7 Change difference for rilzabrutinib vs. placebo LS Mean (95% CI): −11.42 (−23.52, 0.68)
  AAS7 Change from baseline LS Mean (SE): −38.03 (4.48)
  AAS7 Post-baseline Mean (SD): 12.73 (19.47)
Week 6, omalizumab-naïve
  Non-responder n (%), AAS7 = 0: 14 (41.2) n (%)
  OR (95% CI) for rilzabrutinib vs. placebo, AAS7 = 0: 1.334
  RRD (%) for rilzabrutinib vs. placebo (95% CI), AAS7 = 0: 6.5 %
  Responder n (%), AAS7 = 0: 20 (58.8) n (%)
  AAS7 % Change difference for rilzabrutinib vs. placebo LS Mean (95% CI): −15.46 (−46.06, 15.15) %
  AAS7 = 0, Non-responder n (%): 12 (52.2) n (%)
  AAS7 = 0, OR (95% CI) for rilzabrutinib vs. placebo: 1.874
  AAS7 = 0, RRD (%) for rilzabrutinib vs. placebo (95% CI): 13.5 %
  AAS7 Post-baseline Mean (SD): 13.55 (20.58)
  Participants with AAS7 = 0, Responder n (%): 11 (47.8) n (%)
Week 7, ITT
  AAS7 % Change difference for rilzabrutinib vs. placebo LS Mean (95% CI): −22.57 (−53.40, 8.26) %
  AAS7 % Change from baseline LS Mean (SE): −68.52 (11.69) %
  AAS7 Change difference for rilzabrutinib vs. placebo LS Mean (95% CI): −9.86 (−21.60, 1.88)
  AAS7 Change from baseline LS Mean (SE): −37.16 (4.45)
  AAS7 Post-baseline Mean (SD): 12.07 (15.62)
Week 7, omalizumab-naïve
  Non-responder n (%), AAS7 = 0: 15 (44.1) n (%)
  OR (95% CI) for rilzabrutinib vs. placebo, AAS7 = 0: 1.277
  RRD (%) for rilzabrutinib vs. placebo (95% CI), AAS7 = 0: 6.5 %
  Responder n (%), AAS7 = 0: 19 (55.9) n (%)
  AAS7 % Change difference for rilzabrutinib vs. placebo LS Mean (95% CI): −20.11 (−53.85, 13.63) %
  AAS7 % Change from baseline LS Mean (SE): −67.11 (12.58) %
  AAS7 = 0, Non-responder n (%): 13 (56.5) n (%)
  AAS7 = 0, OR (95% CI) for rilzabrutinib vs. placebo: 1.351
  AAS7 = 0, RRD (%) for rilzabrutinib vs. placebo (95% CI): 7.2 %
  AAS7 Post-baseline Mean (SD): 12.43 (15.87)
  Participants with AAS7 = 0, Responder n (%): 10 (43.5) n (%)
Week 8, ITT
  AAS7 % Change difference for rilzabrutinib vs. placebo LS Mean (95% CI): −22.25 (−53.63, 9.12) %
  AAS7 % Change from baseline LS Mean (SE): −74.30 (11.67) %
  AAS7 Change difference for rilzabrutinib vs. placebo LS Mean (95% CI): −11.02 (−22.54, 0.50)
  AAS7 Change from baseline LS Mean (SE): −39.35 (4.28)
  AAS7 Post-baseline Mean (SD): 11.17 (12.56)
Week 8, omalizumab-naïve
  Non-responder n (%), AAS7 = 0: 19 (55.9) n (%)
  OR (95% CI) for rilzabrutinib vs. placebo, AAS7 = 0: 0.964
  RRD (%) for rilzabrutinib vs. placebo (95% CI), AAS7 = 0: −0.9 %
  Responder n (%), AAS7 = 0: 15 (44.1) n (%)
  AAS7 % Change from baseline LS Mean (SE): −73.05 (12.72) %
  AAS7 = 0, Non-responder n (%): 17 (73.9) n (%)
